Assay results reported in patent US20250082761A1, “DUAL-TARGETED RNA POLYMERASE INHIBITORS: CONJUGATES OF BENZOXAZINO- AND SPIRO-RIFAMYCINS WITH N ALPHA-AROYL-N-ARYL-[…]” (priority 2021, published 2025).
Values after ≈ are worked out from the molar mass of the structure shown.

Assays:
[1] = tested on: Mycobacterium tuberculosis H37Rv; assay: microbe, parasite or virus in culture; format: cell-based; conditions: read-out: antibacterial activity M. tuberculosis H37Rv MIC
[2] = tested on: Mycobacterium abscessus IDR-1400012185; format: cell-based; parameters: unit not given here
[3] = tested on: Mycobacterium avium ATCC 25291; assay: Microplate Alamar Blue MIC assay, M. avium; format: cell-based; conditions: unit not given
CYP3A4 = assay: in vitro; conditions: male, human, hepatocytes

| Structure (SMILES) | MIC [1] | antibacterial activity M. abscessus IDR-1400012185 [2] | antibacterial activity M. avium ATCC 25291 [3] | IC50 (CYP3A4) |
| --- | --- | --- | --- | --- |
| [2H]C([2H])(c1ccccc1)[C@@H](NC(=O)c1ccccc1F)C(=O)Nc1cc(F)ccc1N1CCN(c2cc(O)c3nc4c5c6c7c(C)c(O)c5c(=O)c(c-4oc3c2)NC(=O)/C(C)=C\C=C\[C@H](C)[C@H](O)[C@@H](C)[C@@H](O)[C@@H](C)[C@H](O)[C@H](C)[C@@H](OC)/C=C/O[C@@](C)(O7)C6=O)CC1 [IX-519a, desacetyl-3′-hydroxy-benzoxazinorifamycin S-(IX-370a) conjugate] | 0.024 µg/mL (≈ 0.0196 µM) | – | – | – |
| [2H]C([2H])(c1ccccc1)[C@@H](NC(=O)c1ccccc1F)C(=O)Nc1cc(F)ccc1N1CCN(c2cc(O)c3nc4c5c6c7c(C)c(O)c5c(=O)c(c-4oc3c2)NC(=O)/C(C)=C\C=C\[C@H](C)[C@H](O)[C@@H](C)[C@@H](O)[C@@H](C)[C@H](OC(C)=O)[C@H](C)[C@@H](OC)/C=C/O[C@@](C)(O7)C6=O)CC1 [IX-511a, 3'-hydroxy-benzoxazinorifamycin S-(IX-370a) conjugate] | 0.002 µg/mL (≈ 0.00158 µM) | 1.56 | 0.024 | 10 µM |
| CO[C@H]1/C=C/O[C@@]2(C)Oc3c(C)c(O)c4c(O)c(c(/C=N/N5CCN(C)CC5)c(O)c4c3C2=O)NC(=O)/C(C)=C\C=C\[C@H](C)[C@H](O)[C@@H](C)[C@@H](O)[C@@H](C)[C@H](OC(C)=O)[C@@H]1C [rifampin, reference compound] | 0.063 µg/mL (≈ 0.0766 µM) | 1.56 | 0.024 | – |
| [2H]C([2H])(c1ccccc1)C(NC(=O)c1ccccc1F)C(=O)Nc1cc(F)ccc1N1CCC2(CC1)N=C1C(=C3NC(=O)/C(C)=C\C=C\[C@H](C)[C@H](O)[C@@H](C)[C@@H](O)[C@@H](C)[C@H](OC(C)=O)[C@H](C)[C@@H](OC)/C=C/O[C@]4(C)Oc5c(C)c(O)c(c1c5C4=O)C3=O)N2 (stereo partly drawn) [IX-515, spirorifamycin S-(IX-513) conjugate] | 0.031 µg/mL (≈ 0.0265 µM) | 6.25 | 0.78 | > 10 µM |
| [2H]C([2H])(c1ccccc1)[C@@H](NC(=O)c1ccccc1F)C(=O)Nc1cc(F)ccc1N1CCN(c2ccc3nc4c5c6c7c(C)c(O)c5c(=O)c(c-4oc3c2)NC(=O)/C(C)=C\C=C\[C@H](C)[C@H](O)[C@@H](C)[C@@H](O)[C@@H](C)[C@H](OC(C)=O)[C@H](C)[C@@H](OC)/C=C/O[C@@](C)(O7)C6=O)CC1 [IX-516a, benzoxazinorifamycin S-(IX-370a) conjugate] | 0.031 µg/mL (≈ 0.0248 µM) | 3.13 | – | 10 µM |
